Assay results as given in US7566712B2, “Biaryl piperazinyl-pyridine analogues” (Neurogen Corporation, priority 2003, dated 2009).

Molecular target: T1, human capsaicin receptor (Homo sapiens, UniProt Q8NER1)
T1 construct: pBK-CMV expression construct encoding the full length human capsaicin receptor; expressed in transfected cells
Assay: Calcium mobilization assay, determination of antagonist activity (Example 6)
Format: cell-based
Settings: Table II; determined as described in Example 6 (antagonist activity); "*" = 1 micromolar or less
Summary of the method: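 Antagonism measured as inhibition of capsaicin-evoked (final concentration = EC50, from an 8-point 1 nM–3 μM curve) Fluo-3 calcium signal in stable hVR1-HEK293 cells. Test compounds at 1–5 μM final, 0.5–6 h dark preincubation at room temperature. IC50 = concentration giving 50% reduction versus agonist-only response.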

T1 sequence (Q8NER1 whole entry): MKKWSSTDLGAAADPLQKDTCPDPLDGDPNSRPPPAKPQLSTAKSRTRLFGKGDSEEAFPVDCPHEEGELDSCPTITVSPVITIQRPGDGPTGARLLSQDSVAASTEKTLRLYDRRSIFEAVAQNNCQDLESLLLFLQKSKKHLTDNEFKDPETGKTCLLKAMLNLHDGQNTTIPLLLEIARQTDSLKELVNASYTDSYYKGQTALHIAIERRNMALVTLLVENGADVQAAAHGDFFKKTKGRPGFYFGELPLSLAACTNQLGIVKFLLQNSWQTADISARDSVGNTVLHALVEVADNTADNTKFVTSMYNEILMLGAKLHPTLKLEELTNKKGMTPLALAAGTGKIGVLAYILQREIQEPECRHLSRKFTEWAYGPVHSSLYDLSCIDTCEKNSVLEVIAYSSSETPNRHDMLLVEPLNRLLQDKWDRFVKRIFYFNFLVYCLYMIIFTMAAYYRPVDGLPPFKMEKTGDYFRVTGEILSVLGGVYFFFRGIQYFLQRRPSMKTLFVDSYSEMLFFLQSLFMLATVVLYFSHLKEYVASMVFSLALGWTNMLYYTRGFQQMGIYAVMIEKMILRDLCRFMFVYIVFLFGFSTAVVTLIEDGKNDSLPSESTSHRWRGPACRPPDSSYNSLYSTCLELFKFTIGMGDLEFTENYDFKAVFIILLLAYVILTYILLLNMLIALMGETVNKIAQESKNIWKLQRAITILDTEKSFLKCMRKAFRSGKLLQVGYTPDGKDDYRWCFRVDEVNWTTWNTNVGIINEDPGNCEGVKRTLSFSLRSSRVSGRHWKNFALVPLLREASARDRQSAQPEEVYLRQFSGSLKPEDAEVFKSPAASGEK

SMILES	IC50 [µM]
OCCCc1cccc(-c2cc(N3CCN(c4ncccc4C(F)(F)F)CC3)nc(N3CCOCC3)n2)c1 [Example 850, 3-[3-(2-morpholin-4-yl-6-{4-[3-(trifluoromethyl)pyridin-2-yl]piperazan-1-yl}pyrimidin-4-yl)phenyi]propan-1-ol]	≤ 1
CN(C)CCCc1cccc(-c2cc(N3CCN(c4ncccc4C(F)(F)F)CC3)nc(N3CCOCC3)n2)c1 [Example 851, N,N-dimethyl-3-[3-(2-morpholin-4-yl-6-{4-[3-(trifluoromethyl)pyridin-2-yl]piperazin-1-yl}pyrimidin-4-yl)phenyl]propan-1-amine]	≤ 1
Cc1cccnc1N1CCN(c2cc(-c3ccc(F)c(Cl)c3)nc(N3CCOCC3)n2)[C@H](C)C1 [Example 852, 4-{4-(3-chloro-4-fluorophenyl)-6-[(2R)-2-methyl-4-(3-methylpyridin-2-yl)piperazin-1-yl]pyrimidin-2-yl}morpholine]	≤ 1
COC[C@@H]1CCCN1c1nc(-c2cncc(Cl)c2)cc(N2CCN(c3ncccc3Cl)C[C@H]2C)n1 [Example 854, 4-(5-chloropyridin-3-yl)-6-[(2R)-4-(3-chloropyridin-2-yl)-2-methylpiperazin-1-yl]-2-[(2S)-2-(methoxymethyl)pyrrolidin-1-yl]pyrimidine]	≤ 1
CC(=O)c1ccc(-c2cc(N3CCN(c4ncccc4Cl)C[C@H]3C)nc(N3CCCC3)n2)cc1 [Example 856, 1-(4-{6-[(2R)-4-(3-chloropyridin-2-yl)-2-methylpiperazin-1-yl]-2-pyrrolidin-1-ylpyrimidin-4-yl)phenyl)ethanone]	≤ 1
CC(=O)c1ccc(-c2cc(N3CCN(c4ncccc4Cl)C[C@H]3C)nc(N3CCCC3C)n2)cc1 (stereo partly shown) [Example 857, 1-{4-[6-[4-(3-chloropyridin-2-yl)-2-methylpiperazin-1-yl]-2-(2-methylpyrrolidin-1-yl)pyrimidin-4-yl]phenyl}ethanone]	≤ 1
CC(=O)c1ccc(-c2cc(N3CCN(c4ncccc4Cl)C[C@H]3C)nc(N3CCOCC3)n2)cc1 [Example 858, 1-(4-{6-[(2R)-4-(3-chloropyridin-2-yl)-2-methylpiperazin-1-yl]-2-morpholin-4-ylpyrimidin-4-yl}phenyl)ethanone]	≤ 1
CC1CCCN1c1nc(-c2ccc(C#N)cc2)cc(N2CCN(c3ncccc3Cl)C[C@H]2C)n1 (stereo partly shown) [Example 859, 4-[6-[4-(3-chloropyridin-2-yl)-2-methylpiperazin-1-yl]-2-(2-methylpyrrolidin-1-yl)pyrimidin-4-yl]benzonitrile]	≤ 1
C[C@@H]1CN(c2ncccc2Cl)CCN1c1cc(-c2ccc(C#N)cc2)nc(N2CCCC2)n1 [Example 860, 4-{6-[(2R)-4-(3-chloropyridin-2-yl)-2-methylpiperazin-1-yl]-2-pyrrolidin-1-ylpyrimidin-4-yl}benzonitrite]	≤ 1
C[C@@H]1CN(c2ncccc2Cl)CCN1c1cc(-c2ccc(C#N)cc2)nc(N2CCOCC2)n1 [Example 861, 4-{6-[(2R)-4-(3-chloropyridin-2-yl)-2-methylpiperazin-1-yl]-2-morpholin-4-ylpyrimidin-4-yl}benzonitrile]	≤ 1
CC(=O)c1nc(-c2ccc(F)c(F)c2)cc(N2CCN(c3ncccc3C(F)(F)F)CC2)n1 [Example 862, 1-(4-(3,4-difluorophenyl)-6-{4-[3-(trifluoromethyl)pyridin-2-yl]piperazin-1-yl}pyrimidin-2-yl)ethanone]	≤ 1
CCCN1CC=C(c2nc(-c3ccc(F)c(Cl)c3)cc(N3CCN(c4ncccc4C(F)(F)F)CC3)n2)CC1 [Example 863, 4-(3-chloro-4-fluorophenyl)-2-(1-propyl-1,2,3,6-tetrahydropyridin-4-yl)-6-{4-[3-(trifluoromethyl)pyridin-2-yl]piperazin-1-yl}pyrimidine]	≤ 1
CCCN1CCC(c2nc(-c3ccc(F)c(Cl)c3)cc(N3CCN(c4ncccc4C(F)(F)F)CC3)n2)CC1 [Example 872, 4-(3-chloro-4-fluorophenyl)-2-(1-propylpiperidin-4-yl)-6-{4-[3-(trifluoromethyl)pyridin-2-yl]piperazin-1-yl}pyrimidine]	≤ 1
Cc1ccc(C)n1-c1nc(-c2ccc(C#N)cc2)cc(N2CCN(c3ncccc3Cl)C[C@H]2C)n1 [Example 874, 4-[6-[(2R)-4-(3-chloropyridin-2-yl)-2-methypiperazin-1-yl]-2-(2,5-dimethyl-1H-pyrrol-1-yl)pyrimidin-4-yl]benzonitrile]	≤ 1
Cc1ccc(C)n1-c1nc(-c2ccc(F)cc2)cc(N2CCN(c3ncccc3C(F)(F)F)CC2)n1 [Example 875, 2-(2,5-dimethyl-1H-pyrrol-1-yl)-4-(4-fluorophenyl)-6-{4-[3-(trifluoromethyl)pyridin-2-yl]piperazin-1-yl}pyrimidine]	≤ 1
Cc1ccc(C)n1-c1nc(-c2ccc(C#N)cc2)cc(N2CCN(c3ncccc3C(F)(F)F)CC2)n1 [Example 876, 4-(2-(2,5-dimethyl-1H-pyrrol-1-yl)-6-{4-[3-(trifluoromethyl)pyridin-2-yl]piperazin-1-yl}pyrimidin-4-yl)benzonitrie]	≤ 1
Cc1cc(-c2cc(N3CCN(c4ncccc4C(F)(F)F)CC3)nc(-n3c(C)ccc3C)n2)ccc1F [Example 877, 2-(2,5-dimethyl-1H-pyrrol-1-yl)-4-(4-fluoro-3-methylphenyl)-6-{4-[3-(trifluoromethyl)pyridin-2-yl]piperazin-1-yl}pyrimidine]	≤ 1
CN(C)/C=C\C(=O)c1nc(-c2ccc(F)c(F)c2)cc(N2CCN(c3ncccc3C(F)(F)F)CC2)n1 [Example 878, (2Z)-1-(4-(3,4-difluorophenyl)-6-{4-[3-(trifluoromethyl)pyridin-2-yl]piperazin-1-yl}pyrimidin-2-yl)-3-(dimethylamino)prop-2-en-1-one]	≤ 1
CC1CCCN1c1nc(-c2cncc(C#N)c2)cc(N2CCN(c3ncccc3Cl)C[C@H]2C)n1 (stereo partly shown) [Example 880, 5-[6-[4-(3-chloropyridin-2-yl)-2-methylpiperazin-1-yl]-2-(2-methylpyrrolidin-1-yl)pyrimidin-4-yl]nicotinonitrile]	≤ 1
C[C@@H]1CN(c2ncccc2Cl)CCN1c1cc(-c2cccnc2)nc(N2CCCC2)n1 [Example 883, 4-[(2R)-4-(3-chloropyridin-2-yl)-2-methylpiperazin-1-yl]-6-pyridin-3-yl-2-pyrrolidin-1-ylpyrimidine]	≤ 1
CCCN1CCN(c2nc(-c3ccc(F)c(Cl)c3)cc(N3CCN(c4ncccc4C(F)(F)F)CC3)n2)C(=O)C1 [Example 885, 1-(4-(3-chloro-4-fluorophenyl)-6-{4-[3-(trifluoromethyl)pyridin-2-yl]piperazin-1-yl}pyrimidin-2-yl)-4-propylpiperazin-2-one]	≤ 1

Second part, the compound after the results:

IC50 [µM]	SMILES
≤ 1	CC1CCCN1c1nc(-c2ccc(F)c(Cl)c2)cc(N2CCN(c3ncccc3Cl)CC2=O)n1 (stereo not shown) [Example 853, 1-[6-(3-chloro-4-fluorophenyl)-2-(2-methylpyrrolidin-1-yl)pyrimidin-4-yl]-4-(3-chloropyridin-2-yl)piperazin-2-one]
≤ 1	CC1CCN1c1nc(-c2cncc(Cl)c2)cc(N2CCN(c3ncccc3Cl)C[C@H]2C)n1 (stereo partly shown) [Example 855, 4-(5-chloropyridin-3-yl)-6-[4-(3-chloropyridin-2-yl)-2-methylpiperazin-1-yl]-2-(2-methylazetidin-1-yl)pyrimidine]
≤ 1	Fc1ccc(-c2cc(N3CCN(c4ncccc4C(F)(F)F)CC3)nc(C3=CCNCC3)n2)cc1Cl [Example 864, 4-(3-chloro-4-fluorophenyl)-2-(1,2,3,6-tetrahydropyridin-4-yl)-6-{4-(3-(trifluoromethyl)pyridin-2-yl]piperazin-1-yl}pyrimidine]
≤ 1	CC1CCCN1c1nc(-c2ccc(-c3ncon3)cc2)cc(N2CCN(c3ncccc3Cl)C[C@H]2C)n1 (stereo partly shown) [Example 865, 4-[4-(3-chloropyridin-2-yl)-2-methylpiperazin-1-yl]-2-(2-methylpyrrolidin-1-yl)-6-[4-(1,2,4-oxadiazol-3-yl)phenyl]pyrimidine]
≤ 1	C[C@@H]1CN(c2ncccc2Cl)CCN1c1cc(-c2cccc(C#N)c2)nc(N2CCCC2)n1 [Example 868, 3-{6-[(2R)-4-(3-chloropyridin-2-yl)-2-methylpiperazin-1-yl]-2-pyrrolidin-1-ylpyrimidin-4-yl}benzonitrile]
≤ 1	Fc1ccc(-c2cc(N3CCN(c4ncccc4C(F)(F)F)CC3)nc(C3CCNCC3)n2)cc1Cl [Example 871, 4-(3-chloro-4-fluorophenyl)-2-piperidin-4-yl-6-{4-[3-(trifluoromethyl)pyridin-2-yl]piperazin-1-yl}pyrimidine]
≤ 1	Cc1ccc(C)n1-c1nc(-c2ccc(F)cc2)cc(N2CCN(c3ncccc3Cl)C[C@H]2C)n1 [Example 873, 4-((2R)-4-(3-chloropyridin-2-yl)-2-methylpiperazin-1-yl]-2-(2,5-dimethyl-1H-pyrrol-1-yl)-6-(4-fluorophenyl)pyrimidine]
≤ 1	C[C@@H]1CN(c2ncccc2Cl)CCN1c1cc(-c2cncc(C#N)c2)nc(N2CCCC2)n1 [Example 879, 5-{6-[(2R)-4-(3-chloropyridin-2-yl)-2-methylpiperazin-1-yl]-2-pyrrolidin-1-ylpyrimidin-4-yl}nicotinonitrile]
≤ 1	CC1CCCN1c1nc(-c2cccnc2)cc(N2CCN(c3ncccc3Cl)C[C@H]2C)n1 (stereo partly shown) [Example 882, 4-[4-(3-chloropyridin-2-yl)-2-methylpiperazin-1-yl]-2-(2-methylpyrrolidin-1-yl)-6-pyridin-3-ylpyrimidine]
≤ 1	O=C1CNCCN1c1nc(-c2ccc(F)c(Cl)c2)cc(N2CCN(c3ncccc3C(F)(F)F)CC2)n1 [Example 884, 1-(4-(3-chloro-4-f1uorophenyl)-6-{4-[3-(trifluoromethyl)pyridin-2-yl]piperazin-1-yl}pyrimidin-2-yl)piperazin-2-one]
